Reference: patent US6451853B1, “Small molecules that elicit a polarized Th1 response and for modulation of cellular immunity” (Dovetail Technologies, Inc, priority 1998, dated 2002)
Values joined by “and” are separate entries in the source; they are usually repeats but may differ in a detail not shown here. Identical values can stand only once.

What was measured:
[1] = test system: soluble TNF alpha release from human lymphocytes; assay: Soluble TNF alpha in supernatants by ELISA; conditions: Media (unstimulated); drugs 20 mM; ELISA standard curve in pg/mL, unit not given
[2] = test system: surface TNF alpha on human monocytes; assay: Surface TNF alpha expression on monocytes by FACS (CD14+ cells); assay type: cell-based; conditions: all drugs 20 mM
Excerpt: The effect of NAC and BT, alone or in combination, on surface TNF alpha expression by stimulated or unstimulated monocytes (prepared from PBM) was examined. […] Table 6. While only a small proportion of T cells from each donor were responsive to the combination NAC/BT, the effect on surface TNF alpha expression in monocytes was significant.

[3] = test system: surface TNF alpha on human T cells; assay: Surface TNF alpha expression on T cells by FACS (gating on CD3+ cells); conditions: for surface TNF alpha, overall MFI: 20 mM NAC without or with 20 mM BT; for surface TNF alpha expression, Time Course: each drug 20 mM; for TNF alpha in T cells, % Total / TNF alpha in T cells, MFI: marker All
human PBMCs [4] = assay: PBMC proliferation by 3H-thymidine incorporation; assay type: cell-based
Experimental: Treatment with 0.14 mM Taurox-SB increased proliferation of human PBMCs with and without PHA, as detected by incorporation of 3H-thymidine (Table 18).
Human PBMCs are obtained through collection of peripheral blood and isolation over Ficoll 1077. The cells are counted and 5×10^5 cells are plated in triplicate in 96 well plates in 100 μl of media (RPMI 1640, 20% FBS) containing specified conditions. These cells are then allowed to incubate for 48 hours. After this incubation 1 μCi of ^3H-Thymidine is added in a […] volume. The plates are incubated an additional 24 hours and harvested on a Tomtec plate harvester and the filtermat read in a scintillation counter. Many studies have been performed using the drugs in combination with PHA (T cell stimulant (mitogen)) obtained from Sigma.

human PBMCs [5] = assay: Cell cycle analysis; assay type: cell-based; conditions: 18 and 24 hours of exposure
[6] = test system: Cytokine mRNA from T cells (PBMC); assay: RNase protection assay of cytokine mRNA in PBMC (T cells), with or without PMA/ionomycin; conditions: 6 hours, unit not given
MOLT-4 T cell line = assay: CD69 expression by flow cytometry, MOLT-4; assay type: cell-based
Experimental: (§1) CD69 Expression. CD69 expression was assessed by flow cytometry as described previously. […] CD69 is one of the earliest stimulation markers expressed on T cells upon activation (Testi et al., 1994). The cross-linking of this marker is believed to generate extracellular Ca++ influxes and activate phospholipase A2, and thus it is believed to be an integral part of the activation process (Testi et al., 1994).

Cloudman S-91 cells = assay: CTL lysis of Cloudman S-91 targets (CMFDA leakage); assay type: cell-based, DBA/2 mouse; conditions: CTLs generated using 0.14 M Taurox-SB in addition to IL-6/IL-12; 10:1 effector:target, 16 hours
Experimental: The analysis was extended to include killing of the Cloudman S-91 targets used for the CTL generation. Cloudman S-91 cells (5×104) were loaded with chloromethylfluorescein diacetate (CMFDA) and incubated for 16 hours with CTLs generated from DBA/2 splenocytes at a 10:1 effector:target ratio. Lysis was detected by leakage of the CMFDA.

[7] = test system: surface TNF alpha on human monocytes; assay: Surface TNF alpha expression on monocytes by FACS (CD14+ cells); assay type: cell-based; conditions: for Monocyte TNF alpha surface expression, % Positive: fluorescence greater than isotype control peak
T cells = assay: Ca++ mobilization kinetics with fluo-3AM; assay type: cell-based; conditions: final concentrations 0.14 mM to 1.4 mM; eight minute time period; data not shown
Experimental: The kinetics of Ca++ mobilization was observed using the dye fluo-3AM which is a membrane permeable Ca++ indicator which becomes increasingly fluorescent upon Ca++ binding. A baseline reading indicates the resting state of Ca++, followed by injection of Taurox-SB to yield final concentrations of 0.14 mM to 1.4 mM. […] PHA was added as a positive control for the elicitation of a Ca++ response (Greimers et al., 1996). […] (Data not shown.) The role of the second messenger response could be varied, as many proteins are activated by Ca++-regulated intracellular pathways. Second messengers may serve to enhance production of cytokines by immune cells.

PBMC = assay: CD69 expression by flow cytometry, PBMC T cells; assay type: cell-based; conditions: for CD69 Expression, MFI of 10,000 events: PBMC
Experimental: as §1

HUT-78 T cell line = assay: CD69 expression by flow cytometry, HUT-78; assay type: cell-based
Experimental: as §1

[8] = air and aqueous solutions; cited from earlier work
[9] = Taurox-SB 14 nM, no stimulation
[10] = Taurox-SB 14 nM, with stimulation
[11] = Taurox-SB 1.4 uM, no stimulation
[12] = Taurox-SB 1.4 uM, with stimulation
[13] = Taurox-SB 1.4 mM, no stimulation
[14] = Taurox-SB 1.4 mM, with stimulation
[15] = With PMA + Ionomycin stimulation, 1.4 mM TSB, 16 hours
[16] = With PMA + Ionomycin stimulation, .14 mM TSB, 16 hours
[17] = Without stimulation, 1.4 mM TSB, 16 hours
[18] = Without stimulation, .14 mM TSB, 16 hours

## CC(=O)N[C@@H](CS)C(=O)O [NAC, N-acetyl-L-cysteine, reference compound]
[1]
  Soluble TNF: 15
[2]; stimulated monocytes
  surface TNF alpha expression: relative ineffectiveness
[2]; unstimulated monocytes
  surface TNF alpha expression: not upregulated
[3]; NAC + Stimulation (1 micromolar Ionomycin, 10 ng/ml PMA), individual donors
  surface TNF alpha, overall MFI: 25.32 and 31.12 and 95.45 and 53.48 and 17.39 and 12.59
[3]; NAC + Stimulation with 1 ng PMA
  surface TNF alpha, overall MFI: 11.31 and 12.76
[3]; Pma/iono, 6 hours
  surface TNF alpha expression, Time Course: 82
[3]; Pma/iono, 16 hours
  surface TNF alpha expression, Time Course: 93
[3]; Pma/iono, 24 hours
  surface TNF alpha expression, Time Course: 101
[3]; Pma/iono, 42 hours
  surface TNF alpha expression, Time Course: 113
[3]; Pma/iono, 68 hours
  surface TNF alpha expression, Time Course: 80
[3]; no stimulation, individual donors
  surface TNF alpha, overall MFI: 24.7 and 6.96 and 17.49 and 6.34 and 6.68
[3]; unstimulated, 6 hours
  surface TNF alpha expression, Time Course: 20
[3]; unstimulated, 16 hours
  surface TNF alpha expression, Time Course: 33
[3]; unstimulated, 24 hours
  surface TNF alpha expression, Time Course: 39
[3]; unstimulated, 42 hours
  surface TNF alpha expression, Time Course: 56
[3]; unstimulated, 68 hours
  surface TNF alpha expression, Time Course: 47

## O=C(CCNC(=O)OCc1ccccc1)NCCS(=O)(=O)O [Taurox-SB, carbobenzoxy beta-alanyl taurine]
Human PBMCs [4]; 0.14 mM, No PHA
  PBMC Proliferation, mean cpm ± SD: 2964 ± 684 cpm
Human PBMCs [4]; 0.14 mM, PHA 10 μg/ml
  PBMC Proliferation, mean cpm ± SD: 5538 ± 597 cpm
Human PBMCs [4]; 1.4 mM
  viability: slight reduction in viability
Human PBMCs [4]; .014 mM, No PHA
  PBMC Proliferation, mean cpm ± SD: 1346 ± 70 cpm
Human PBMCs [4]; .014 mM, PHA 10 μg/ml
  PBMC Proliferation, mean cpm ± SD: 4794 ± 652 cpm
Human PBMCs [5]
  cell cycle distribution: increase in the proportion of cells in G2/M
[6]; [9]
  Effect on GAPDH message: −20.94
  Effect on IFNg message: 21.53
  Effect on Ltb message: 29.83
  Effect on TGFb1 message: 17.51
  Effect on TNFa message: 2.10
  Effect on TNFb message: 62.96
[6]; [10]
  Effect on GAPDH message: −8.10
  Effect on IFNg message: −32.73
  Effect on Ltb message: 12.29
  Effect on TGFb1 message: −10.25
  Effect on TNFa message: −15.96
  Effect on TNFb message: 22.72
[6]; [11]
  Effect on GAPDH message: −8.16
  Effect on IFNg message: 16.76
  Effect on Ltb message: 21.09
  Effect on TGFb1 message: 29.61
  Effect on TNFa message: 21.27
  Effect on TNFb message: 311.16
[6]; [12]
  Effect on GAPDH message: 4.88
  Effect on IFNg message: −9.85
  Effect on Ltb message: 2.92
  Effect on TGFb1 message: −0.09
  Effect on TNFa message: 48.67
  Effect on TNFb message: 4.18
[6]; [13]
  Effect on GAPDH message: 4.96 _
  Effect on IFNg message: 388.08
  Effect on Ltb message: 85.61
  Effect on TGFb1 message: 36.89
  Effect on TNFa message: 461.93
  Effect on TNFb message: 373.82
[6]; [14]
  Effect on GAPDH message: −38.75
  Effect on IFNg message: −64.90
  Effect on Ltb message: 234.28
  Effect on TGFb1 message: −25.88
  Effect on TNFa message: −100.00
  Effect on TNFb message: 20.95
[3]; [15]
  TNF alpha in T cells, % Total: 88.89%
  TNF alpha in T cells, MFI: 85.04
[3]; [16]
  TNF alpha in T cells, % Total: 85.64%
  TNF alpha in T cells, MFI: 169.68
[3]; [17]
  TNF alpha in T cells, % Total: 72.09%
  TNF alpha in T cells, MFI: 25.34
[3]; [18]
  TNF alpha in T cells, % Total: 78.07%
  TNF alpha in T cells, MFI: 20.18
MOLT-4 T cell line; MOLT-4 + PHA, 1.4 mM
  CD69 Expression, MFI of 10,000 events: 547
MOLT-4 T cell line; MOLT-4, 1.4 mM
  CD69 Expression, MFI of 10,000 events: 208
Cloudman S-91 cells
  lysis of Cloudman S-91 targets: 73%
[7]; PMA/iono + Taurox-SB 1.4 mM
  Monocyte TNF alpha surface expression, % Positive: 59% and 53% and 57% and 36%
[7]; Taurox-SB 1.4 mM, no PMA/iono
  Monocyte TNF alpha surface expression, % Positive: 9% and 3%
[7]; Taurox-SB 1.4 mM, no PMA/iono, separate experiments
  Monocyte TNF alpha surface expression, MFI: 19.91 and 16.68 and 10.95
T cells
  Ca++ mobilization: rising or sustained
PBMC; 1.4 mM
  CD69 Expression, MFI of 10,000 events: 7
PBMC; 14 mM
  CD69 Expression, MFI of 10,000 events: 11
PBMC; T cells, concentrations less than 1.4 mM
  CD69 expression: without effect
HUT-78 T cell line; HUT-78 + PHA, 1.4 mM
  CD69 Expression, MFI of 10,000 events: 409
HUT-78 T cell line; HUT-78, 1.4 mM
  CD69 Expression, MFI of 10,000 events: 278

## NCCC(=O)NCCS [beta-aletheine]
[8]
  stability: unstable in air and aqueous solutions
